{"source": "patent US6866861B1", "about": "“Method and composition for enhancing milk component concentrations” (Land O'Lakes, Inc., priority 1999, dated 2005)", "system": "cows", "assay": "Abomasal infusion of sorbitol in cows, repeat trial with different cows (Example 3)", "format": "in vivo, cow", "conditions": "for Fat / Lactose / Non-Protein Nitrogen / Total Solids / True Protein: 100 g/cow/day abomasal, 3 cows", "protocol": "To determine the weight percent total solids, wet basis, in a sample, the actual weight of total solids is determined by analyzing the sample in accordance with Method #925.23 (33.2.09) of Official Methods of Analysis, Association of Official Analytical Chemists (AOAC) (16th Ed., 1995). The weight percent total solids, wet basis, is then calculated by dividing the actual weight of total solids by the actual weight of the sample. The weight percent of true protein, wet basis, for a particular sample is calculated after first determining the wet basis weight percent of total Kjeldahl nitrogen and the wet basis weight percent of non-protein nitrogen in the sample. The wet basis weight percent of total Kjeldahl nitrogen in the sample is determined using the method referenced above. The wet basis weight percent of non-protein nitrogen (NPN) in the sample is determined in accordance with Method #991.21 (33.2.12) of Official Methods of Analysis, Association of Official Analytical Chemists (AOAC) (16th Ed., 1995). The weight percent of true protein, wet basis, in the sample is then determined by subtracting the wet basis weight percent of non-protein nitrogen in the sample from the wet basis weight percent of total Kjeldahl nitrogen in the sample. To determine the weight percent lactose, wet basis, in a liquid sample, the weight of the liquid sample is first determined. The actual weight of lactose in the liquid sample may then be determined using analysis kit number 176-303, that is available from Boehringer-Mannheim of Indianapolis, Ind. in accordance with the procedural instructions included with analysis kit number 176-303. The weight percent lactose, wet basis, in the liquid sample is then calculated by dividing the actual weight of lactose in the liquid sample by the actual weight of the liquid sample. To determine the weight percent fat, wet basis, in a sample, the actual weight of fat in the sample is determined in accordance with Method #974.09 (33.7.18) of Official Methods of Analysis, Association of Official Analytical Chemists (AOAC) (16th Ed., 1995). The weight percent fat, wet basis, is then calculated by dividing the actual weight of fat in the sample by the actual weight of the sample. In this example, sorbitol was abomasally infused into three different cows at a rate of 100 grams of sorbitol per cow per day during a 14 day test period. The sorbitol rations were mixed with water to facilitate infusion. The rations provided to the cows during the period extending from day 0, prior to abomasal infusion of sorbitol, through day 14 of the test period were the same. The only difference in feeding of the cows between day 0 and days 1-14 of the test period were that during days 1-14 the cows were abomasally infused with the dosage of 100 grams of sorbitol per cow per day. Milk from the three cows was collected and analyzed prior to infusion (on day 0) and also was collected and analyzed on the third, seventh and fourteenth day of the test period. The results presented in Table 2 below for each milk component for each particular day are averages for the milk collected from the three different cows. The trial of Example 2 was repeated in Example 3 several months later using three different cows. All of the test conditions described above for Example 2 were repeated in Example 3, with the exception of use of different cows. The results of the second trial are listed in Table 3 below: The net change for the different milk components presented in Table 3 was calculated by averaging the results of days 3, 7 and 14 for a particular milk component and subtracting the results presented for day 0 for the particular milk component. The results of Table 3 illustrate that, on average, the abomasal infusion of sorbitol caused a net increase in the amount of fat and total solids in the milk of the test cattle. […]", "key": {"[1]": {"conditions": "milk, average of days 3, 7, 14 minus day 0"}}}
{"molecule": "OC[C@@H](O)[C@@H](O)[C@H](O)[C@@H](O)CO", "note": "[sorbitol]", "values": [{"measurement": "amount of fat and total solids in the milk (conclusion in words)", "setting": "abomasal infusion, 14 day test period, on average", "result": "net increase"}, {"measurement": "Fat", "setting": "milk, Day 3", "result": 4.22, "unit": "Wt %"}, {"measurement": "Lactose", "setting": "milk, Day 3", "result": 4.80, "unit": "Wt. %"}, {"measurement": "Non-Protein Nitrogen", "setting": "milk, Day 3", "result": 0.23, "unit": "Wt. %"}, {"measurement": "Total Solids", "setting": "milk, Day 3", "result": 12.95, "unit": "Wt. %"}, {"measurement": "True Protein", "setting": "milk, Day 3", "result": 3.21, "unit": "Wt. %"}, {"measurement": "Fat", "setting": "milk, Day 7", "result": 3.53, "unit": "Wt %"}, {"measurement": "Lactose", "setting": "milk, Day 7", "result": 5.12, "unit": "Wt. %"}, {"measurement": "Non-Protein Nitrogen", "setting": "milk, Day 7", "result": 0.27, "unit": "Wt. %"}, {"measurement": "Total Solids", "setting": "milk, Day 7", "result": 12.26, "unit": "Wt. %"}, {"measurement": "True Protein", "setting": "milk, Day 7", "result": 2.89, "unit": "Wt. %"}, {"measurement": "Fat", "setting": "milk, Day 14", "result": 3.81, "unit": "Wt %"}, {"measurement": "Lactose", "setting": "milk, Day 14", "result": 5.80, "unit": "Wt. %"}, {"measurement": "Non-Protein Nitrogen", "setting": "milk, Day 14", "result": 0.23, "unit": "Wt. %"}, {"measurement": "Total Solids", "setting": "milk, Day 14", "result": 12.55, "unit": "Wt. %"}, {"measurement": "True Protein", "setting": "milk, Day 14", "result": 3.22, "unit": "Wt. %"}, {"measurement": "Fat, Net Change", "setting": "[1]", "result": "+0.38 Wt %"}, {"measurement": "Lactose, Net Change", "setting": "[1]", "result": "+0.39 Wt. %"}, {"measurement": "Non-Protein Nitrogen, Net Change", "setting": "[1]", "result": "no net change"}, {"measurement": "Total Solids, Net Change", "setting": "[1]", "result": "+0.41 Wt. %"}, {"measurement": "True Protein, Net Change", "setting": "[1]", "result": "−0.03", "unit": "Wt. %"}, {"measurement": "increase of true protein content if the results of day 7 were eliminated from the net change", "setting": "milk, days 3 and 14 versus day 0", "result": "about 0.08 weight percent"}]}
